Laboratory results from patent US20240100050A1, “MDM2 INHIBITORS AND USES THEREOF” (PMV Pharmaceuticals, Inc., priority 2022, published 2024).

Legend:
[1] = % body weight change in the SJSA1 tumor dosing regimen study; format: in vivo; conditions: SJSA1 tumors
Description: A study was conducted to compare differences between dosing regimens of navtemadlin administered to SJSA1 tumors. S.ISa-1 is a human […] cell line. Navtemadlin is an MDM2 inhibitor compound of the disclosure. Navtemadlin was administered intratumorally as 20 μL of 100 mg/mL navtemadlin Q3D×9, 20 μL of 100 mg/mL navtemadlin Q7D×5, 20 μL of 100 mg/mL navtemadlin Q14D×3, and 20 μL of 25 mg/mL navtemadlin QD×31.
(§1) FIG. 2 panels A and B show the effects of intratumoral dosing regimens of navtemadlin in SJSA1 tumors, such as on tumor volume (mm 3) and % body weight change.

[2] = tested on: SJSA1 tumors; assay: Intratumoral dosing regimens of navtemadlin in SJSA1 tumors: tumor volume / % tumor inhibition; format: in vivo, human; conditions: for % TGI Day 24: compared to the vehicle
Description: A study was conducted to compare differences between dosing regimens of navtemadlin administered to SJSA1 tumors. S.ISa-1 is a human […] cell line. Navtemadlin is an MDM2 inhibitor compound of the disclosure. […]
as §1

[3] = intratumorally 20 μL of 25 mg/mL QD×31
[4] = intratumorally 20 μL of 100 mg/mL Q3D×9
[5] = intratumorally 20 μL of 100 mg/mL Q7D×5
[6] = intratumorally 20 μL of 100 mg/mL Q14D×3

In the case of `CC(C)[C@@H](CS(=O)(=O)C(C)C)N1C(=O)[C@@](C)(CC(=O)O)C[C@H](c2cccc(Cl)c2)[C@H]1c1ccc(Cl)cc1` [navtemadlin], the “% body weight change” value [1, 3] is reported as “not significantly affecting % body weight change”, the “% body weight change” value [1, 4] is reported as “not significantly affecting % body weight change” and the “% body weight change” value [1, 5] is reported as “not significantly affecting % body weight change”. The “% body weight change” value [1, 6] was “not significantly affecting % body weight change”, the “% TGI Day 24” value ([2]; Q3Dx21 IT) was 94% and the “% TGI Day 24” value ([2]; Q7Dx21 IT) was 94%. The “% TGI Day 24” value ([2]; Q14Dx21 IT) was 94%, the “% TGI Day 24” value ([2]; QDx21 PO) was 94% and the tumor volume [2, 3] was “significant tumor volume reduction”. The tumor volume [2, 4] was “significant tumor volume reduction”, the tumor volume [2, 5] was “significant tumor volume reduction” and the tumor volume [2, 6] was “significant tumor volume reduction”.
